Laboratory results: patent US11077126B2 (priority 2017, dated 2021)

Experiments:
[1] = system: transplanted tumor of human prostate cancer PC3 cells; experiment: Human prostate cancer in nude mice model; conditions: 30 mg/kg i.g. 30 d
Method: (§1) Then cell concentration was adjusted to 1×10^7/ml with matrigel, and then each nude mouse was inoculated subcutaneously with 0.2 ml of cells at its right armpit and recorded as the first day of inoculation. […] Each group was continuously administered intragastrically for 30 days with a dose of 20 ml/kg. The mice were sacrificed the next day after drug withdrawal and the indicators were tested. The long diameter and short diameter of the tumor, and the body weight of each mouse were recorded every 3 days from drug administration to nude mouse sacrifice.
(§2) The body weight of the nude mice and the long diameter (a) and short diameter (b) of the transplanted tumor were measured every 3 days, and the tumor volume (v), relative tumor volume (RTV) and relative tumor proliferation rate (T/C) are calculated respectively according to the following formulas, wherein V=a×b^2/2; RTV=V/V0 (V0 is the tumor volume before administration, V is the tumor volume before sacrifice), and T/C (%)=treatment group RTV/model control group RTV×100%.
(§3) Each mouse was weighed and sacrificed. After the tumor was completely stripped off from the body of the mouse, the non-tumor tissues such as blood stains and fat were removed to weigh the tumor and calculate the tumor growth inhibition rate. The average tumor weight of each group of mice is used as an indicator of efficacy. Tumor growth inhibition rate (%)=(1−the average tumor weight of the treatment group/the average tumor weight of the model group)×100%.

[2] = system: transplanted tumor of human renal clear cell adenocarcinoma 786-O cells; experiment: Human renal clear cell adenocarcinoma in nude mice model; conditions: 786-O nude mice; 30 mg/kg i.g. 30 d
Method: as §1, with “786-O cells in a logarithmic growth phase were taken and subjected to a trypan blue exclusion experiment showing that the cell viability was more than 95%, then the cells were subjected to trypsinization, centrifugation, and supernatant removal. Then” for “Then”
as §2, §3

[3] = system: transplanted tumor of human glioblastoma A172 cells; experiment: Human glioblastoma in nude mice model; conditions: 30 mg/kg i.g. 30 d
Method: as §1, with “matrigel,” for “matrigel, and”
as §2, §3

[4] = system: transplanted tumor of human esophageal cancer TE-1 cells; experiment: Human esophageal cancer in nude mice model; conditions: 30 mg/kg
Method: as §1, §2, §3

[5] = system: mouse bone marrow polychromatic erythrocytes; conditions: NIH mice, cyclophosphamide 60 mg/kg positive control
Method: It is the object to test the mutagenic potential of drugs on mammalian somatic cells, and provide a basis for clinical drug use.
An appropriate amount of 0.5% sodium carboxymethyl cellulose solution was added to prepare a suspension, and the suspension was stored in a refrigerator at 4° C. The negative control was an equal amount of 0.5% sodium carboxymethylcellulose solution. The positive control was prepared as follows: an appropriate amount of cyclophosphamide used for injection was weighed, and was dissolved in normal saline at the time of use to prepare 60 mg/kg of solution.
6 mice per group. The doses, number of administrations, and bone marrow sampling time are selected in the pre-test.
The dose is reduced by ½ LD50 as the standard, and the number of administrations is one time. According to the pre-test results, the bone marrow sampling time is to sample 24 hours after administration.
At least three dose groups, respectively: 2,000 mg/kg, 1,000 mg/kg, 500 mg/kg
The number of administrations: one-time oral administration.
Oral (Intragastric) administration.
2.4.3 Bone marrow sampling time: 24 hours after administration.
The mice were sacrificed by cervical dislocation. Then the sternums were taken to remove the muscles thereon and the attachments were wiped with a gauze. Direct smear of bone marrow was used: the sternums were cut to expose the medullary cavity, and bone marrow was extruded and mixed well with a drop of calf serum on a slide beforehand as a push piece. After being dried, the slide was fixed in methanol for 10 minutes, and then after it was dried, it was then subjected to Giemsa staining. Each mouse was microscopically examined for about 1,000 polychromatic erythrocytes with intact contours of erythrocytes, and the frequency of occurrence of micronuclei and the ratio of polychromatic erythrocytes to erythrocytes were counted.

O=P1(N(CCCl)CCCl)NCCCO1 (stereo not shown) [Cyclophosphamide]
Body Weight (g)(d1) [1]: 19.32 ± 0.25 g
Body Weight (g)(d30) [1]: 18.68 ± 1.21 g
Inhibition Rate (%) [1]: 70.06%
Relative Tumor Proliferation Rate(T/C) [1]: 23.29%
Relative Tumor Volume (RTV) [1]: 4.67 ± 0.82
Tumor Volume (mm3) (d1) [1]: 108.68 ± 13.62 mm3
Tumor Volume (mm3) (d30) [1]: 507.88 ± 87.93 mm3
Tumor Weight [1]: 0.56 ± 0.4 g
Body Weight (g)(d1) [2]: 21.57 ± 1.31 g
Body Weight (g)(d30) [2]: 20.39 ± 1.02 g
Inhibition Rate (%) [2]: 71.36%
Relative Tumor Proliferation Rate(T/C) [2]: 19.93%
Relative Tumor Volume (RTV) [2]: 3.34 ± 0.68
Tumor Volume (mm3) (d1) [2]: 181.48 ± 31.63 mm3
Tumor Volume (mm3) (d30) [2]: 606.14 ± 14.34 mm3
Tumor Weight [2]: 0.62 ± 0.17 g
Body Weight (g)(d1) [3]: 22.89 ± 1.22 g
Body Weight (g)(d30) [3]: 19.27 ± 1.49 g
Inhibition Rate (%) [3]: 68.68%
Relative Tumor Proliferation Rate(T/C) [3]: 75.42%
Relative Tumor Volume (RTV) [3]: 11.78 ± 3.25
Tumor Volume (mm3) (d1) [3]: 122.41 ± 14.06 mm3
Tumor Volume (mm3) (d30) [3]: 1430.80 ± 134.31 mm3
Tumor Weight [3]: 0.85 ± 0.18 g
Relative Tumor Proliferation Rate(T/C) [4]: 52.01%
Relative Tumor Volume (RTV) [4]: 9.05 ± 2.58
Tumor Weight [4]: 0.66 ± 0.28 g
Inhibition Rate (%) ([4]; by tumor weight): 72.12%
Body Weight (g)(d1) ([4]; d1): 22.78 ± 1.35 g
Tumor Volume (mm3) (d1) ([4]; d1): 92.02 ± 7.06 mm3
Body Weight (g)(d30) ([4]; d30): 21.32 ± 1.63 g
Tumor Volume (mm3) (d30) ([4]; d30): 830.30 ± 34.31 mm3
micronucleus rate relative to the negative control group [5]: 16.85 times
micronuclei of polychromatic erythrocytes compared with the negative control group ([5]; P<0.01): very significant increase
